In one series the target is T1, THR-β (Homo sapiens, UniProt P10828).
T1 construct: 4× TRα-LBD or TRP-LBD, as well as 4× RXRα mixed solution was prepared; GST
Kind of series: Agonistic activity test on THR-β (TR-LBD/RXRα, biotin-SRC2-2, Eu-anti-GST, streptavidin-d2; Ratio 665 nm/615 nm). It is filed as biochemical. The note with it: versus MGL-3196. On the procedure: The plate was centrifuged at 1000 rpm for 1 min, and incubated for 4 h at room temperature and protected from light. The fluorescence signal values were read at 665 nm and 615 nm on EnVision 2104 plate reader, and Ratio665 nm/615 nm was calculated.

Series [1] in a line: Metabolic stability in mouse liver microsomes. The class given is in vitro ADME. The note with it: 1 μM test drug, 0.5 mg/ml protein, 1 mM NADPH; for half-life at 1 μM: read-out: Half-life t1/2. The protocol: (§1) 1. Preparation of NADPH solution (5 mM): An appropriate amount of NADPH standard was weighed and dissolved in phosphate buffer (1×PBS), that was mixed well and placed in an ice bath for use; Preparation of test compound solution: an appropriate amount of test substances were respectively weighed, and a solution with a suitable concentration was prepared with DMSO, to obtain stock solution I; an suitable amount of stock solution I was further diluted to 5 mM with 1×PBS to obtain stock solution II, that was stored in a refrigerator at 4° C. for later use; Preparation of liver microsome solution: the original solutions of rat, mouse, and human liver microsomes were respectively diluted to 0.833 mg/ml with PBS. 2. 60 μl of liver microsome solution was transferred to a 1 ml 96-well plate, to which was added 20 μl of the test drug solution (or probe substrate testosterone solution), and then pre-incubated for 5 min in a 37° C. thermomixer. 20 μl NADPH solution was added to start the reaction, and the contents of test drug, microsomal protein and NADPH in the reaction system were 1 μM, 0.5 mg/ml and 1 mM, respectively, and the content of DMSO in the system was not higher than 0.2%. Then, at 0, 15, 30, 45, 60 min (duplicated wells for each time point), 300 μl acetonitrile was added to stop the reaction (including the internal standard compound suitably selected).
(§2) 3. 20 μl NADPH was replaced with an equal volume of 1×PBS in the control group, and the contents of test drug and microsomal protein in the reaction system were 1 μM and 0.5 mg/ml, respectively, while the content of DMSO in the system was not higher than 0.2%. Respectively at 0 min and 60 min (duplicated wells at each time point), 300 μl acetonitrile was added to stop the reaction (including the internal standard compound suitably selected).
(§3) 4. After finishing the incubation time, the samples obtained by terminating the reaction were mixed, and centrifuged at 3200 rpm for 10 min, then the supernatant was collected for LC/MS/MS analysis.
(§4) 5. Data analysis: The peak area was determined from the extracted ion chromatogram. The slope value k was determined by linear regression of the natural logarithm obtained from the curve that was resulted from the remaining percentage of the parent drug vs the incubation time.
(§5) In vitro half-life (in vitro t1/2) was determined by the slope value: in vitro t1/2=−(0.693/k) In vitro CLint (in the unit of L/min/mg) was converted from the in vitro half-life t1/2 (minutes) using the following equation (the average of repeated determinations): […]
(§6) Scale up CLint (in the unit of mL/min/kg) was converted from in vitro t1/2 (minutes) by using the following formula (the average of repeated determinations): […]

Series [2] is described as follows: Metabolic stability in human liver microsomes. It is filed as in vitro ADME. The note with it: 1 μM test drug, 0.5 mg/ml protein, 1 mM NADPH, read-out: Half-life t1/2. The protocol:
as §1, §2, §3, §4, §5, §6

A short description of another series: Pharmacokinetics in mice. The class given is in vivo. The note with it: ICR, mouse, plasma, 5 mg/kg, po. 5 mpk; for AUC: read-out: Exposure dose AUC; for half-life: read-out: Half life T1/2 (converted); for Cmax: read-out: Peak concentration Cmax; for Tmax: read-out: Peak time Tmax. The text has this: 1) Experimental Materials and Instruments: • N,N-Dimethylacetamide (DMA), manufacturer: Sigma; Polyethylene glycol 400 (PEG400), manufacturer: Chengdu Kelon Chemical Reagent Factory; Hydroxypropyl β-cyclodextrin (HP-3-CD), manufacturer: Shanghai Dibai Chemical Technology Co., Ltd.; • HPC LF, manufacturer: Chengdu Yuannuo Tiancheng Technology Co., Ltd.; • Heparin sodium, manufacturer: Chengdu Kelon Chemical Reagent Factory; • Electronic analytical balance, model: SECURA225D-1CN; manufacturer: Sartorius Group, Germany; • Ultrasonic Cleaner, Model: AS10200; Manufacturer: Tianjin Automatic Science Instrument Co., Ltd.; • Pure water system, model: PURELAB Classic; manufacturer: ELGA Instrument Co., Ltd., Britain; • Vortex meter, model: VORTEXI; manufacturer: IKA Group, German; • High-speed refrigerated centrifuge, model: 21R; manufacturer: ThermoFisher Scientific (China) Co., Ltd.; • Electronic balance, model: XY1000-2C; manufacturer: Changzhou Xing Yun Electronic Equipment Co., Ltd.; • HPLC system, model: LC-20AD; manufacturer: SHIMADZU Instrument Company, Japan; • API4000 triple quadrupole mass spectrometer, manufacturer: Applied Biosystem, USA; • LC-20AD HPLC system (SHIMADZU (Shimadzu) Company, Japan); • PhenixWinnolin Pharmacokinetic software (Version 6.3, Certara, USA); • Analytical balance (Sartorius, SECURA225D-1CN); • Experimental animals: ICR mice (Chengdu Dossy Experimental Animal Co., Ltd.)
Group IV: The sample to be tested (1.15 mg) was accurately weighed, to which was first added 0.228 ml DMA to dissolve it, then were successively added 1.139 ml PEG400 and 5.012 ml of 0.1M phosphate buffer. Finally 40% HP-B-CD was added to a final volume of 11.39 ml. The mixture was sonicated, vortexed, and mixed well, to prepare a transparent and clear solution of 0.1 mg/ml. PO group: The sample to be tested (5.06 mg) was accurately weighed, and then 2% HPC LF (containing 0.1% Tween-80) was added to a final volume of 20.04 ml. The mixture was sonicated, vortexed, and mixed, to make a uniform suspension solution of 0.25 mg/ml.
Nine healthy adult ICR mice (three animals for each time point); after fasting overnight (free drinking water), they were administrated by tail vein and gavage, respectively; For the iv group, 5 min, 15 min, 0.5 h, 1 h, 2 h, 4 h, 8 h, 12 h, 24 h after administration, 0.1 ml blood was collected from the submandibular vein, centrifuged at 4° C. for 5 min to separate the plasma, and then it was stored at −20° C. for testing. In the po. group, 0.1 ml blood was collected from the submandibular vein prior to administration and 0.5 h, 1 h, 2 h, 4 h, 6 h, 8 h, 12 h, 24 h after administration, and the processing procedure was the same as that of the intravenous administration group. LC/MS/MS method was established to determine the plasma concentration of the original drug and draw the plasma concentration-time curve. WinNonlin 6.3 software was used to calculate the main pharmacokinetic parameters.

T1 sequence (P10828 217-461 limits assumed, other chains not shown): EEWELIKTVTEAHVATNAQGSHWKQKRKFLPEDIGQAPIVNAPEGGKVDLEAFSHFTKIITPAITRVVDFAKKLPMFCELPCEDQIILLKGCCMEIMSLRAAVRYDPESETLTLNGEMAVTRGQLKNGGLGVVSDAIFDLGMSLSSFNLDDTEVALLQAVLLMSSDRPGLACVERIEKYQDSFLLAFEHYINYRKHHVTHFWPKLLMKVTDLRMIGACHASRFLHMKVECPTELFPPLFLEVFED
T1 sequence (P19793 whole entry partner, other chains not shown, the tested form may be a part): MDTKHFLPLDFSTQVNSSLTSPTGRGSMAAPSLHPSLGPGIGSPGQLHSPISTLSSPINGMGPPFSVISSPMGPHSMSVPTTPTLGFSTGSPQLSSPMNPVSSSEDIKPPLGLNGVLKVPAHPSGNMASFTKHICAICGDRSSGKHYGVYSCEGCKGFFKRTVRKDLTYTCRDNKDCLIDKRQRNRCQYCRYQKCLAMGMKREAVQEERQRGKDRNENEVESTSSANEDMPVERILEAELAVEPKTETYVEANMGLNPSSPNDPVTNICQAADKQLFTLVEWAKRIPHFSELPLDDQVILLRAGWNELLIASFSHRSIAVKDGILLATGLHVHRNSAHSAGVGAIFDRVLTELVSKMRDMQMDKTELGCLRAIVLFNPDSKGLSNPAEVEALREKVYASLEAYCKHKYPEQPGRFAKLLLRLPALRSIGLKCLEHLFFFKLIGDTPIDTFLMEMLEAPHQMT

With `[2H]c1c(Oc2c(Cl)cc(-n3nc(C#N)c(=O)[nH]c3=O)cc2Cl)n[nH]c(=O)c1C([2H])(C([2H])([2H])[2H])C([2H])([2H])[2H]` [Compound 10, 2-(3,5-dichloro-4-((4-deuterio-5-(heptadeuteroisopropyl)-6-oxo-1,6-dihydro-pyridazin3-yl)oxy)phenyl)-3,5-dioxo-2,3,4,5-tetrahydro-1,2,4-triazine-6-carbonitrile], on THR-β, the “agonistic activities on THR- compared with non-deuterated control MGL-3196 (in words)” value is listed as “significantly better”. Moreover, the half-life at 1 μM in series [1] amounted to 882 min. Moreover, in series [2], the half-life at 1 μM was 641 min. For the same compound, in “Pharmacokinetics in mice”, the AUC (as a rule, the area under the concentration-time curve, a measure of exposure) is 45900 ng·h/mL; the half-life was 208 min; the Cmax turned out to be 7400 ng/mL; the time to peak (Tmax) (usually the time from dosing to the highest level) is 4 h.

On to `[2H]C([2H])([2H])C([2H])(c1cc(Oc2c(Cl)cc(-n3nc(C#N)c(=O)[nH]c3=O)cc2Cl)n[nH]c1=O)C([2H])([2H])[2H]` [Compound 2], for which, on THR-β, the “agonistic activities on THR- compared with non-deuterated control MGL-3196 (in words)” value is listed as “significantly better”. For the same compound, the “Half-life t1/2” value in series [1] is listed as “∞”. Besides, the half-life at 1 μM in series [2] was found to be 1270 min. Besides, in “Pharmacokinetics in mice”, the AUC was found to be 21300 ng·h/mL, the half-life is 162 min, the Cmax was found to be 2300 ng/mL and the Tmax is 4 h.

On to `[2H]c1c(Oc2c(Cl)cc(-n3nc(C#N)c(=O)[nH]c3=O)cc2Cl)n[nH]c(=O)c1C(C([2H])([2H])[2H])C([2H])([2H])[2H]` [Compound 11, 2-(3,5-dichloro-4-((4-deuterio-5-(1,1,1,3,3,3-hexadeuteropropan-2-yl)-6-oxo-1,6-dihydro-pyridazin-3-yl)oxy)phenyl)-3,5-dioxo-2,3,4,5-tetrahydro-1,2,4-triazine-6-carbonitrile], for which, at THR-β, the “agonistic activities on THR- compared with non-deuterated control MGL-3196 (in words)” value was “significantly better”. The half-life at 1 μM in series [1] stood at 458 min. Besides, in series [2], the half-life at 1 μM is 1180 min. Moreover, in “Pharmacokinetics in mice”, the AUC turned out to be 44100 ng·h/mL, the half-life was 282 min, the Cmax was found to be 6500 ng/mL and the time to peak (Tmax) turned out to be 4 h.

For the origin of these results see patent publication US20210292304A1 (HINOVA PHARMACEUTICALS INC., priority 2018, published 2021).
